Experimental data as given in patent publication US20190352297A1, “SELECTIVE AURORA A KINASE INHIBITORS” (UNIVERSITAT BERN, priority 2017, published 2019).
“Also recorded” adds a separate entry of the source.

Columns and labels:
456 kinases = experiment: Kinome scan of 456 kinases (scanMAX); assay type: binding; settings: screened at 1 μM
Experimental: The kinome profiling of compound 9 was conducted by DiscoveRx. In total, 456 kinases were assayed (scanMAX). For most assays, kinase-tagged T7 phage strains were grown in parallel in 24-well blocks in an E. coli host derived from the BL21 strain. E. coli were grown to log-phase and infected with T7 phage from a frozen stock (multiplicity of infection=0.4) and incubated with shaking at 32° C. until lysis (90-150 minutes). The lysates were centrifuged (6000 g) and filtered (0.2 μm) to remove cell debris. The remaining kinases were produced in HEK-293 cells and subsequently tagged with DNA for qPCR detection. […] The liganded beads were blocked with excess biotin and washed with blocking buffer (SeaBlock (Pierce), 1% BSA, 0.05% Tween 20, 1 mM DTT) to remove unbound ligand and to reduce non-specific phage binding. […] Test compounds were prepared as 40× stocks in 100% DMSO and directly diluted into the assay. All reactions were performed in polypropylene 384-well plates in a final volume of 0.04 ml. […] The kinase concentration in the eluates was measured by qPCR. Compound 114 was screened at 1 μM, and results for primary screen binding interactions were reported as % of control (PoC). PoC=(test compound signal−positive control signal)/(DMSO signal−positive control signal). […] KD values were determined with a standard dose-response curve using the Hill equation.

pThr288 Aurora A = experiment: Phosphorylation of Aurora A Thr288 in cells; assay type: cell-based, human; settings: cells; read-out: cellular IC50 (pT288), phosphorylation of Aurora A Thr288
Experimental: (§1) HeLa Kyoto cells were cultured in high-glucose DMEM with GlutaMAX (Life Technologies) media supplemented with 10% fetal calf serum (FCS) in a humidified 5% CO2 incubator at 37° C. For plasmid transfections, cells were seeded at 80-90% confluence. 4 μg of plasmid DNA in 100 μl OptiMEM and 4 μl of Lipofectamine 2000 (Life Technologies) in 100 μl OptiMEM were incubated in parallel for 5 minutes, mixed for 20 minutes and added to each well. All Aurora A clones were constructed using full-length Aurora A as a template with appropriate PCR primer pairs. […] GFP-Aurora AR137A and GFP-Aurora AW277A were engineered using a site directed mutagenesis kit (Agilent Technologies, no. 210515) with appropriate primers. For determining the mitotic index and the chromosome misalignment phenotype, cells were incubated with various concentrations of compounds for 20 h before analysis. Cells were likewise treated with 0.25 μM MLN8237 (Selleckchem, no. S1133) or 5 μM ZM447439 (Selleckchem, no. S1103). For flow cytometry analysis, 50 nM […] and 2.5 μM ZM447439 were used. For rescue experiments, HeLa Kyoto cells were first transfected with GFP-Aurora A, GFP-Aurora AR137A or GFP-Aurora AW277A for 20 h, followed by incubation with 9 for another 20 h before cells were fixed with cold methanol and stained. To assess the impact of compound 9 on cell cycle progression, DNA content was analyzed after propidium iodide staining using FACS (BD Accuri C6 flow cytometer).
For immunofluorescence, cells were fixed in cold methanol, washed in PBT (PBS supplemented with 0.05% Tween-20) and stained with the following primary antibodies: 1:200 rabbit anti-pT288 (Cell Signaling, C39D8), 1:200 rabbit anti-pH3S10 (Cell Signaling, D2C8), 1:500 mouse anti-α-tubulin (Transduction Laboratories, 612709), 1:300 mouse anti-GFP (MAB3580, Millipore), 1:200 anti-TPX2 (Santa Cruz Biotechnology, sc-32863), anti-Aurora A (Invitrogen, 458900). Secondary antibodies were anti-mouse conjugated to Alexa488 or Alexa568, as well as anti-rabbit conjugated to Alexa488 or Alexa568, all used at 1:500 (Invitrogen). […]

HeLa cells = experiment: Mitotic index of HeLa cells; assay type: cell-based, human
Experimental: HeLa Kyoto cells were cultured in high-glucose DMEM with GlutaMAX (Life Technologies) media supplemented with 10% fetal calf serum (FCS) in a humidified 5% CO2 incubator at 37° C. For plasmid transfections, cells were seeded at 80-90% confluence. 4 μg of plasmid DNA in 100 μl OptiMEM and 4 μl of Lipofectamine 2000 (Life Technologies) in 100 μl OptiMEM were incubated in parallel for 5 minutes, mixed for 20 minutes and added to each well. All Aurora A clones were constructed using full-length Aurora A as a template with appropriate PCR primer pairs. […] For determining the mitotic index and the chromosome misalignment phenotype, cells were incubated with various concentrations of compounds for 20 h before analysis. […] For rescue experiments, HeLa Kyoto cells were first transfected with GFP-Aurora A, GFP-Aurora AR137A or GFP-Aurora AW277A for 20 h, followed by incubation with 9 for another 20 h before cells were fixed with cold methanol and stained.

[1] = tested on: phospho-Histone H3 Ser10 (Aurora B); experiment: Phospho-Histone H3 Ser10 in cells (Aurora B activity); assay type: cell-based, human
Experimental: as §1
For immunofluorescence, cells were fixed in cold methanol, washed in PBT (PBS supplemented with 0.05% Tween-20) and stained with the following primary antibodies: 1:200 rabbit anti-pT288 (Cell Signaling, C39D8), 1:200 rabbit anti-pH3S10 (Cell Signaling, D2C8), 1:500 mouse anti-α-tubulin (Transduction Laboratories, 612709), 1:300 mouse anti-GFP (MAB3580, Millipore), 1:200 anti-TPX2 (Santa Cruz Biotechnology, sc-32863), anti-Aurora A (Invitrogen, 458900). Secondary antibodies were anti-mouse conjugated to Alexa488 or Alexa568, as well as anti-rabbit conjugated to Alexa488 or Alexa568, all used at 1:500 (Invitrogen). Confocal images were acquired on a Zeiss LSM 710 confocal microscope equipped with a Axiocam MRm (B/VVW) CCD camera using a 63×NA 1.0 oil objective and processed in ImageJ and Adobe Photoshop, maintaining relative image intensities within a series.

GFP-Aurora A-Arg137Ala = target: T1, GFP-Aurora A-Arg137Ala (Homo sapiens, UniProt O14965, R137A); experiment: Phenotypic rescue, cells expressing mutant Aurora A; assay type: cell-based
T1 construct: All Aurora A clones were constructed using full-length Aurora A as a template; expressed in transfected cells; host or cells: HeLa Kyoto
T1 sequence (O14965 1-403 R137A): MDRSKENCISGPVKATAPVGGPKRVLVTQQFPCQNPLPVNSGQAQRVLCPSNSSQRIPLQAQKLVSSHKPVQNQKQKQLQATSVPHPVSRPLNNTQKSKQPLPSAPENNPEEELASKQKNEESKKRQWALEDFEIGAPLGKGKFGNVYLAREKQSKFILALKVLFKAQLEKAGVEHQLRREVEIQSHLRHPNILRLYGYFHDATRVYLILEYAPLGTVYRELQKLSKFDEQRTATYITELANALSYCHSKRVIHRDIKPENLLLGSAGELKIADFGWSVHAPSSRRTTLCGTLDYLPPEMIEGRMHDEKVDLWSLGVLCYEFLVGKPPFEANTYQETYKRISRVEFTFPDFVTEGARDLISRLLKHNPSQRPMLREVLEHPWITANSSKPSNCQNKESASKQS
Experimental: as §1, with “For rescue experiments, HeLa Kyoto cells were first transfected with GFP-Aurora A, GFP-Aurora AR137A or GFP-Aurora AW277A for 20 h, followed by incubation with 9 for another 20 h before cells were fixed with cold methanol and stained.” left out

With `CCc1ccc(N=C2SC(=Cc3ccnc(Nc4ccc(C(=O)O)cn4)c3)C(=O)N2C)cc1` [Compound 9] the kinome selectivity (456 kinases) was “remarkably selective”, the IC50 (pThr288 Aurora A) was 760 nM and the mitotic index (HeLa cells; 4 μM) was about 15%. For the same molecule, the mitotic index (HeLa cells; 10 μM) was about 25%, the mitotic index (HeLa cells; 25 μM) was about 40% and the “effect on Aurora B activity in cells” value [1] was “no effect; also recorded: without impairing Aurora B function”. The IC50 ([1]; Aurora B/INCENP, cells, read-out: cellular IC50 (pH3)) was over 25000 nM, the “distribution of phospho-Histone H3 Ser10” value ([1]; treated cells) was “remained unchanged” and the “sensitivity of GFP-Aurora A-Arg137Ala to inhibitor” value (GFP-Aurora A-Arg137Ala) was “insensitive”.
